In patent EP0252983B1, “SALTS OF N-(VINYLOXIETHYL)DITHIOCARBAMIC ACID, METHOD OF OBTAINING THEREOF AND […] ON THEM” (priority 1985, dated 1987):
Read-outs that look alike come from different tables or passages of the source.

Legend:
Wurzelfäule von Gurken = experiment: Cucumber root rot test in treated non-sterile soil; type: in vivo; conditions: 200 kg/ha Wirkstoff
Excerpt: Man nimmt 100 g unsterilen Boden, enthaltend 1 Teil Humus, 1 Teil Rasenboden, 1 Teil Sand, gibt darin ein Präparat, das Zink-bis-(N-vinyloxyäthyldithiocarbamat) ausgehend von 200 kg/ha Wirkstoff enthält.
Das Präparat wird wie folgt hergestellt: Einer gesättigten Lösung des genannten Salzes in Azeton gibt man einige Tropfen Emulgiermittel (hydroxyäthylierte Alkylphenole) zu und verdünnt mit Wasser. Innerhalb von 7 bis 8 Tagen begießt man dann bodenhaltige Gefäße mit Wasser, bis der Boden in einen Zustand gebracht wird, der 60% der vollen Wasseraufnahmekapazität des Feldes beträgt. Nach dieser Zeit erfolgt die Aussaat von Gurkensamen, eingequollen im voraus in einer 0,1%igen KMn04-Lösung innerhalb von 2 Stunden. In jedes Gefäß werden je 10 Samen auf eine Tiefe von 1 bis 1,5 cm gesät. Nach 7 bis 9 Tagen berücksichtigt man die Keimungsfähigkeit von Samen, dann bestimmt man nach 3 Tagen den Befallumfang von Pflanzen durch Wurzelfäule, hervorgerufen durch einen Erregerkomplex. Die Versuche werden viermal wiederholt, als Vergleichsmuster dient Milon. Die Prüfergebnisse zeigt Tabelle 9.

Rhizoctonia solani [1] = experiment: Soil fungicide test (fungal discs in treated soil); type: cell-based; parameters: key: Das Vorhandensein (+); das Fehlen (-) des wachsenden Myzels um die Scheibe herum; conditions: 160 mg/kg Boden
Procedure: (§1) Eine 50 g schwere Bodenprobe bringt man in ein Glasgefäß ein, sterilisiert innerhalb von 2 Stunden unter einem Druck von 2 atm, gibt dann dem Boden das Präparat als wäßrige Lösung ausgehend von 160 mg/kg zu, wonach in den Boden Scheiben mit Kulturen folgender Pilze Fusarium oxysporum, Verticillium dahliae, Rhizoctonia solani, Pythium ultimum untergebracht werden.
(§2) Nach 24 und 48 Stunden werden die Scheiben in fließendem Wasser, dann in sterilem Wasser gewaschen, auf sterilem Filterpapier getrocknet und auf eine reine Agarplatte gelegt. Das Vorhandensein (+) oder das Fehlen (-) des wachsenden Myzels um die Scheibe herum wies auf die Wirksamkeit des Präparats. Als Vergleichsmuster diente dabei Karbathion. Die Prüfergebnisse sind in der Tabelle 5 dargestellt.

Fusarium oxysporum = experiment: Soil fungicide test (fungal discs in treated soil); type: cell-based; parameters: key: Das Vorhandensein (+); das Fehlen (-) des wachsenden Myzels um die Scheibe herum; conditions: 160 mg/kg Boden
Procedure: as §1, §2

Verticillium dahliae [2] = experiment: Soil fungicide test (fungal discs in treated soil); type: cell-based; parameters: key: Das Vorhandensein (+); das Fehlen (-) des wachsenden Myzels um die Scheibe herum; conditions: 160 mg/kg Boden
Procedure: as §1, §2

Pythium ultimum = experiment: Soil fungicide test (fungal discs in treated soil); type: cell-based; parameters: key: Das Vorhandensein (+); das Fehlen (-) des wachsenden Myzels um die Scheibe herum; conditions: 160 mg/kg Boden
Procedure: as §1, §2

Penicillium funiculosum = experiment: Mycelial growth inhibition on agar (contact activity); type: cell-based; conditions: Talaromyces funiculosus, 120 h, Wirkstoffkonzentration 0,003 %
Procedure: (§3) Die Prüfungen werden nach dem Verfahren zur Ermittlung der Kontaktaktivität durchgeführt. Man verwendet das in Wasser gelöste Kalium-N-(vinyloxyäthyl)dithiocarbamat, führt es in ein Nährmedium ein und vergießt auf Petri-Schalen. Nach 24 Stunden wird mit Pilzmyzelium nach einem Stichverfahren geimpft. Dann temperiert man die Schalen innerhalb von 5 Tagen bei einer zwischen 24 und 26 °C liegenden Temperatur und mißt den Durchmesser von Pilzkolonien, ermittelt den Prozentsatz der Hemmung des Myzelwachstums (S) ausgehend von Angaben am 5. Tag nach der Abbott-Formel [drawing 13] worin dc für den Durchmesser der Pilzkolonien, de für den Durchmesser von Pilzkolonien in der Schale stehen, wo ein die zu prüfenden Stoffe enthaltendes Medium vorhanden ist. Dieses Verfahren zur Ermittlung der mikrobiologischen Aktivität ist in anderen Beispielen verwendet.

Stereum hirsutum = experiment: as above; type: cell-based; conditions: Stereum hirsutum, 120 h, Wirkstoffkonzentration 0,003 %
Procedure: as §3

Paecilomyces varioti = experiment: as above; type: cell-based; conditions: Paecilomyces, 120 h, Wirkstoffkonzentration 0,003 %
Procedure: as §3

Chaetomium globosum = experiment: as above; type: cell-based; conditions: Chaetomium globosum, 120 h; Wirkstoffkonzentration 0,003 %; Tabelle 3; read-out: Mycelhemmung, in %
Procedure: as §3

Aspergillus niger = experiment: as above; type: cell-based
Botrytis cinerea = experiment: as above; type: cell-based; conditions: 120 h, Kartoffel-Glukose-Nährmedium, read-out: Myzelhemmung in %
Procedure: as §3
(§4) Tabelle 2 zeigt die Angaben für die fungizide Aktivität von Kalium-N-(vinyloxyäthyl)dithiocarbamat und bekannten wirksamen Fungiziden Poly arbazin und TMTD. Der zu prüfende Stoff wurde im Laufe der Versuche in Wasser aufgelöst, und die Kulturen wurden auf einem Kartoffel-Glukose-Nährmedium gezüchtet.

Fusarium sambucinum = experiment: as above; type: cell-based
Procedure: as §3, §4

Fusarium moniliforme = experiment: as above; type: cell-based
Procedure: as §3, §4

Venturia inaegualis = experiment: as above; type: cell-based; conditions: 120 h, Kartoffel-Glukose-Nährmedium, read-out: Myzelhemmung in %
Procedure: as §3, §4

Verticillium dahliae [3] = experiment: as above; type: cell-based; conditions: 120 h, Kartoffel-Glukose-Nährmedium, read-out: Myzelhemmung in %
Procedure: as §3, §4

Rhizoctonia solani [4] = experiment: as above; type: cell-based; conditions: Rhizoctonia solani, 120 h; Wirkstoffkonzentration 0,003 %; Würzeagar; Tabelle 7; read-out: Myzelhemmung in %
Procedure: as §3
Die fungizide Aktivität von Zink-bis-(N-vinyloxyäthyldithiocarbamat) gegen reine Kulturen von Pilzen Fusarium moniliforme, Fusarium sambucinum, Aspergillus niger, Rhizoctonia solani, Cladosporium resinae, Cladosporium cladosporioides, Acremonium cowum, Acremonium charticola, Penicillium chrysogenum, Penicillium charlesii Smith, Penicillium funiculosum, Geotrichum candidum Link, Walrotiela subiculesa, Oidium sp., Paecilomyces varioti, Stereum hirsutum wird gemäß Beispiel 8 untersucht.
(§5) Als Nährmedium dient Würzeagar.

Sphaeropsis malorum = experiment: as above; type: cell-based; conditions: 120 h; Wirkstoffkonzentration 0,003 %; Würzeagar; Tabelle 7; read-out: Myzelhemmung in %
Procedure: as §3, §5

Larven von Fichtenböcken = experiment: Insecticidal activity, topical application to larvae; type: in vivo, Fichtenböcke; conditions: 10%ige Lösung
Excerpt: Die hohe insektizide Aktivität von Kalium-N-(vinyloxyathyl)dithiocarbamat und Zink-bis-(N-vinyloxyathyl- dithiocarbamat) wurde in Versuchen an Larven von Fichtenböcken nachgewiesen. Geprüft wurden die 10%igen wäßrigen (oder alkoholischen) Lösungen, welche auf die Kopfbrust von Larven aufgebracht wurden. In Versuchen standen je 20 Larven zur Verfügung. Die Versuche wurden dreimal wiederholt. Die Mortalität wurde nach 1, 24 und 48 Stunden ermittelt. Die insektizide Aktivität der erfindungsgemäßen Stoffe ist bedeutend höher als die von Chlorophos.
Die Prüfungen auf insektizide Aktivität werden an Larven von Fichtenböcken durchgeführt. Geprüft werden eine 10%ige wäßrige Lösung von Kalium-N-(vinyloxyäthyl)dithiocarbamat und eine 10%ige alkoholische Lösung von Zink-bis-N-(vinyloxyathyldithiocarbamat). In jedem Versuch stehen je 20 Larven zur Verfügung. Die Mortalität wird nach 1, 24 und 48 Stunden ermittelt. Die zu prüfenden Lösungen werden auf die Kopfbrust von Larven aufgebracht.

Psoroptes cuniculi = experiment: Acaricidal activity on isolated mites; type: in vivo
Procedure: Die akarizide Aktivität der Stoffe wird an isolierten Milben Psoroptes cuniculi als Erreger der Psoroptesräude bei Kaninchen geprüft. Von frischen Verkrustungen von Kaninchen mit Psoroptesräude, werden zu diesem Zweck 50 Milbenexemplare (Larven, Nymphen, Imago) gewählt und in Petri-Schalen auf ein Filterpapierblatt übertragen. Dann bringt man auf Milben und die ganze Blattoberfläche 1,5 ml zu prüfende wäßrige Stofflösung in destilliertem Wasser auf. Die Schale wird mit Deckel verschlossen und in einen Thermostat bei 30 °C und Feuchtegehalt von 90 % angeordnet. Der Wirkstoff wird als wäßrige Lösung mit einer zwischen 0,0039 und 4 % liegenden Konzentration genommen. Als Vergleichsmuster dient gleichzeitig eine wäßrige Lösung von Chlorophos. Milben werden im Kontrollversuch (Kontrolle auf Lebensfähigkeit)mit 1,5 ml physiologischer Lösung behandelt und in einen anderen Thermostat unter gleichen Temperatur- und Feuchtigkeitsbedingungen aufgestellt.
Nach 1, 2, 4, 6 Stunden und alle 24 Stunden betrachtet man die Milben im Mikroskop und zählt die toten Milben. Aufgrund der Milbenvernichtung durch einen 24-stündigen Kontakt mit dem Wirkstoff ermittelt man die LK-50 Werte. Die Versuche werden 5mal wiederholt. Arithmetische Mittelwerte gibt Tabelle 14 an.

[5] = Tabelle 3, read-out: Mycelhemmung, in %
[6] = Würzeagar, Tabelle 8, read-out: Myzelhemmung in %
[7] = Wirkstoffkonzentration 0,003 %, Würzeagar, Tabelle 7

CN1CSC(=S)N(C)C1 [Milon, 3,5-Dimethyltetrahydro-1,3,5-thiadizin-1-thion-2, reference compound]
0%: Entwicklung von Krankheiten in % (Wurzelfäule von Gurken; Wurzelfäule von Gurken)
70,3%: Keimungshäufigkeit in % (Wurzelfäule von Gurken; Gurkensamen)

CNC(=S)[S-].[Na+] [Karbathion, reference compound]
-: wachsendes Myzel um die Scheibe (Rhizoctonia solani [1]; Haltedauer 24 Stunden) | wachsendes Myzel um die Scheibe (Rhizoctonia solani [1]; Haltedauer 48 Stunden) | wachsendes Myzel um die Scheibe (Fusarium oxysporum; Haltedauer 24 Stunden) | wachsendes Myzel um die Scheibe (Fusarium oxysporum; Haltedauer 48 Stunden) | wachsendes Myzel um die Scheibe (Verticillium dahliae [2]; Haltedauer 24 Stunden) | wachsendes Myzel um die Scheibe (Verticillium dahliae [2]; Haltedauer 48 Stunden) | wachsendes Myzel um die Scheibe (Pythium ultimum; Haltedauer 24 Stunden) | wachsendes Myzel um die Scheibe (Pythium ultimum; Haltedauer 48 Stunden)

O=C(Nc1ccccc1)c1ccccc1O [Salizylanilid, reference compound]
100%: inhibition of growth at 0.003 % (Penicillium funiculosum; [5]) | inhibition of growth at 0.003 % (Stereum hirsutum; [5]) | inhibition of growth at 0.003 % (Paecilomyces varioti; [5]) | inhibition of growth at 0.003 % (Chaetomium globosum) | inhibition of growth at 0.003 % (Aspergillus niger; Aspergillus niger, 120 h, Wirkstoffkonzentration 0,003 %, Tabelle 3, read-out: Mycelhemmung, in %)

Oc1c(Cl)c(Cl)c(Cl)c(Cl)c1Cl [Pentachlorphenol, reference compound]
100%: inhibition of growth at 0.003 % (Penicillium funiculosum; [6]) | inhibition of growth at 0.003 % (Stereum hirsutum; [6]) | inhibition of growth at 0.003 % (Paecilomyces varioti; [6]) | inhibition of growth at 0.003 % (Aspergillus niger; Aspergillus niger, 120 h, Wirkstoffkonzentration 0,003 %, Würzeagar, Tabelle 8, read-out: Myzelhemmung in %)

CN(C)C(=S)SSC(=S)N(C)C [TMTD, Tetramethylthiuramdisulfid, reference compound]
100%: inhibition of growth at 0.01 % (Botrytis cinerea; Wirkstoffkonzentration 0,01 %) | inhibition of growth at 0.003 % (Botrytis cinerea; Wirkstoffkonzentration 0,003 %) | inhibition of growth at 0.01 % (Fusarium sambucinum; Fusarium sambucinum, 120 h, Wirkstoffkonzentration 0,01 %, Kartoffel-Glukose-Nährmedium, read-out: Myzelhemmung in %) | inhibition of growth at 0.003 % (Fusarium sambucinum; Fusarium sambucinum, 120 h, Wirkstoffkonzentration 0,003 %, Kartoffel-Glukose-Nährmedium, read-out: Myzelhemmung in %) | Myzelhemmung in % (Fusarium sambucinum; [7]) | inhibition of growth at 0.01 % (Fusarium moniliforme; Fusarium verticillioides, 120 h, Wirkstoffkonzentration 0,01 %, Kartoffel-Glukose-Nährmedium, read-out: Myzelhemmung in %) | inhibition of growth at 0.003 % (Fusarium moniliforme; Fusarium verticillioides, 120 h, Wirkstoffkonzentration 0,003 %, Kartoffel-Glukose-Nährmedium, read-out: Myzelhemmung in %) | Myzelhemmung in % (Fusarium moniliforme; [7]) | inhibition of growth at 0.01 % (Venturia inaegualis; Wirkstoffkonzentration 0,01 %) | inhibition of growth at 0.003 % (Venturia inaegualis; Wirkstoffkonzentration 0,003 %) | inhibition of growth at 0.01 % (Verticillium dahliae [3]; Wirkstoffkonzentration 0,01 %) | inhibition of growth at 0.003 % (Verticillium dahliae [3]; Wirkstoffkonzentration 0,003 %) | inhibition of growth at 0.003 % (Rhizoctonia solani [4]) | inhibition of growth at 0.003 % (Sphaeropsis malorum) | inhibition of growth at 0.01 % (Aspergillus niger; Aspergillus niger, 120 h, Wirkstoffkonzentration 0,01 %, Kartoffel-Glukose-Nährmedium, read-out: Myzelhemmung in %) | inhibition of growth at 0.003 % (Aspergillus niger; Aspergillus niger, 120 h, Wirkstoffkonzentration 0,003 %, Kartoffel-Glukose-Nährmedium, read-out: Myzelhemmung in %) | Myzelhemmung in % (Aspergillus niger; [7])

COP(=O)(OC)C(O)C(Cl)(Cl)Cl (stereo not drawn) [Chlorophos, O,O-Dimethyl-(1-oxy-2,2,2-trichloräthyl)phosphonat, reference compound]
72 Stunden: Vernichtung von 100 % der Milben nach Stunden (Psoroptes cuniculi; Konzentration 0,25 %)
0%: Mortalität von Larven der Fichtenböcke (Larven von Fichtenböcken; Wirkungsdauer 1 Stunde)
57%: Mortalität von Larven der Fichtenböcke (Larven von Fichtenböcken; Wirkungsdauer 48 Stunden)
20%: Mortalität von Larven der Fichtenböcke (Larven von Fichtenböcken; Wirkungsdauer 24 Stunden)
0,8%: LK-50 % (Psoroptes cuniculi; 24-stündiger Kontakt mit dem Wirkstoff)
48 Stunden: Vernichtung von 100 % der Milben nach Stunden (Psoroptes cuniculi; Konzentration 0,5 bis 1,0 %)
